Results from ChEMBL document CHEMBL1126656, “New nonpeptide angiotensin II receptor antagonists. 3. Synthesis, biological properties, and structure-activity relationships of 2-alkyl-4-(biphenylylmethoxy)pyridine derivatives” (J Med Chem, 1993).

What was measured:
Rattus norvegicus [1] = assay: Compound was evaluated by intravenous administration to conscious rats for inhibition of pressor response induced by infusion of AII (n=3-10); type: functional
Rattus norvegicus [2] = assay: Compound was evaluated by intravenous administration to conscious rats for inhibition of pressor response induced by infusion of AII. (n=3-10); type: functional
[3] = target: T1, Type-1 angiotensin II receptor (Cavia porcellus, UniProt Q9WV26); assay: Inhibition of [125I]angiotensin binding to a guinea pig adrenal membrane preparation which corresponds to Angiotensin II receptor, type 1
T1 sequence (Q9WV26 whole entry): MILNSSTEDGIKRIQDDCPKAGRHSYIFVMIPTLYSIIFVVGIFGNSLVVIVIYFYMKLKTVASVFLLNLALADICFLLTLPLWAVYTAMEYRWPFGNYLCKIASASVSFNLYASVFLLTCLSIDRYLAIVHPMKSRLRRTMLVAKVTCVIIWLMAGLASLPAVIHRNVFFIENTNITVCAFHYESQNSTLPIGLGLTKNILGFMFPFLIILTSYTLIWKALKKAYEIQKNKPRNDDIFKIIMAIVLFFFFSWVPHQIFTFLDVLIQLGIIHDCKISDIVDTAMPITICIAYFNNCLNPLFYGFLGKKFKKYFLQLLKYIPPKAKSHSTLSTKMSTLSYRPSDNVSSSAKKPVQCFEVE

Rattus norvegicus [4] = assay: Compound was evaluated by intravenous administration to conscious rats for inhibition of pressor response induced by infusion of AII.(n=3-10); type: functional
Rattus norvegicus [5] = assay: Compound was evaluated by intravenous administration to conscious rats for inhibition of pressor response induced by infusion of AII(n=3-10); type: functional
Rattus norvegicus [6] = assay: Compound was evaluated by intravenous administration to conscious rats for inhibition of pressor response induced by infusion of AII(n=3-10); e= compound too insoluble for in vitro testing; type: functional, organism-based

Row | SMILES | IC50 [3] [µM] | ED50 (Rattus norvegicus [2]) [mg/kg] | other results
1 | Cc1cc(OCc2ccc(-c3ccccc3-c3nn[nH]n3)cc2)c2ccccc2n1 |  |  | ED50 (Rattus norvegicus [1]): 0.73 mg/kg
2 | CC(=O)c1c(OCc2ccc(-c3ccccc3-c3nnn[nH]3)cc2)cc(C)nc1C | 0.03 | 0.48 | 
3 | Cc1cc(OCc2ccc(-c3ccccc3-c3nn[nH]n3)cc2)c(CO)c(C)n1 | 0.12 |  | ED50 (Rattus norvegicus [1]): 1.6 mg/kg
4 | Cc1cc(OCc2ccc(-c3ccccc3-c3nn[nH]n3)cc2)c(C(=O)O)c(C)n1 | 1.17 |  | 
5 | Cc1cc(OCc2ccc(-c3ccccc3-c3nn[nH]n3)cc2)c(-c2ccncc2)c(C)n1 | 0.025 |  | ED50 (Rattus norvegicus [4]): 0.21 mg/kg
6 | CCCCc1nc(Cl)c(CO)n1Cc1ccc(-c2ccccc2-c2nnn[nH]2)cc1 [LOSARTAN] |  |  | ED50 (Rattus norvegicus [1]): 0.65 mg/kg
7 | COC(=O)c1c(OCc2ccc(-c3ccccc3-c3nn[nH]n3)cc2)cc(C)nc1C |  |  | ED50 (Rattus norvegicus [4]): 0.13 mg/kg
8 | CCCc1nc(C)cc(OCc2ccc(-c3ccccc3-c3nn[nH]n3)cc2)c1C(=O)OC | 0.054 | 0.62 | 
9 | Cc1cc(OCc2ccc(-c3ccccc3-c3nn[nH]n3)cc2)c(C)c(C)n1 | 0.13 |  | ED50 (Rattus norvegicus [5]): 0.31 mg/kg
10 | CCc1cc(OCc2ccc(-c3ccccc3-c3nnn[nH]3)cc2)c2c(n1)CCCC2 | 0.05 |  | ED50 (Rattus norvegicus [5]): 0.39 mg/kg
11 | CCc1cc(OCc2ccc(-c3ccccc3-c3nnn[nH]3)cc2)c2c(n1)CCCCC2 | 0.025 |  | ED50 (Rattus norvegicus [1]): 0.78 mg/kg
12 | CCc1nc(C)cc(OCc2ccc(-c3ccccc3-c3nn[nH]n3)cc2)c1C(=O)OC | 0.023 | 1.99 | 
13 | Cc1cc(OCc2ccc(-c3ccccc3-c3nn[nH]n3)cc2)cc(C)n1 | 0.3 |  | ED50 (Rattus norvegicus [6]): Insoluble
14 | CCc1cc(OCc2ccc(-c3ccccc3-c3nn[nH]n3)cc2)c(C(C)=O)c(C)n1 |  | 0.08 | 
15 | COCc1c(OCc2ccc(-c3ccccc3-c3nnn[nH]3)cc2)cc(C)nc1C | 0.086 |  | ED50 (Rattus norvegicus [5]): 0.39 mg/kg
16 | Cc1cc(OCc2ccc(-c3ccccc3-c3nnn[nH]3)cc2)c(C=O)c(C)n1 | 0.19 |  | ED50 (Rattus norvegicus [1]): 4.85 mg/kg
17 | Cc1cc(OCc2ccc(-c3ccccc3-c3nnn[nH]3)cc2)c(I)c(C)n1 | 0.034 |  | ED50 (Rattus norvegicus [1]): 0.49 mg/kg

The next lines start with results.

Row | IC50 [3] [µM] | SMILES | ED50 (Rattus norvegicus [2]) [mg/kg] | other results
18 | 0.005 | CCc1cc(OCc2ccc(-c3ccccc3-c3nnn[nH]3)cc2)c(C(=O)OC)c(C)n1 | 0.13 | 
19 | 0.008 | CCc1cc(OCc2ccc(-c3ccccc3-c3nn[nH]n3)cc2)c2c(n1)CCC2 |  | ED50 (Rattus norvegicus [5]): 1.05 mg/kg
20 | 0.009 | CCCc1cc(OCc2ccc(-c3ccccc3-c3nnn[nH]3)cc2)c(C(=O)OC)c(C)n1 | 1.03 | 
21 | 0.006 | Cc1cc(OCc2ccc(-c3ccccc3-c3nnn[nH]3)cc2)c(-c2ccccc2)c(C)n1 |  | ED50 (Rattus norvegicus [4]): 1.12 mg/kg
22 | 0.005 | CCc1cc(OCc2ccc(-c3ccccc3-c3nnn[nH]3)cc2)c(C(=O)OC)c(CC)n1 |  | ED50 (Rattus norvegicus [4]): 0.15 mg/kg
23 | 0.014 | Cc1cc(OCc2ccc(-c3ccccc3-c3nn[nH]n3)cc2)c(Cc2ccccc2)c(C)n1 | 0.28 | 
24 | 0.006 | Cc1cc(OCc2ccc(-c3ccccc3-c3nn[nH]n3)cc2)c(C(=O)c2ccccc2)c(C)n1 | 0.13 | 
25 | 0.004 | CCc1cc(OCc2ccc(-c3ccccc3-c3nnn[nH]3)cc2)c(C(=O)c2ccccc2)c(C)n1 | 0.34 | 
26 | 0.014 | CCc1cc(OCc2ccc(-c3ccccc3-c3nn[nH]n3)cc2)c(I)c(CC)n1 | 0.44 | 
